From patent publication US5464848A, “1,2,4-oxadiazolyl-phenoxyalkylisoxazoles and their use as antiviral agents” (Sterling Winthrop Inc., priority 1993, dated 1995)
In brackets after ≈: the same amount, converted by molar mass.

How the values were obtained:
HRV-2 = assay: Inhibition of virus-induced CPE in HeLa cells, automated TCID-50 assay (MIC), HRV-2; assay type: cell-based, human rhinovirus; conditions: Rhinovirus A, HRV2, 72 h, 3 day incubation at 33° C.
Experimental: (§1) They are useful in inhibiting virus replication in vitro and are primarily active against picornaviruses, including enteroviruses, echovirus and coxsackie virus, especially rhinoviruses. […] The test procedure used was as follows: The MIC values were determined by an automated tissue culture infectious dose 50% (TCID-50) assay. HeLa cells in monoloyers in 96-well cluster plates were infected with a dilution of virus which had been shown empirically to produce 80% to 100% cytopathic effect (CPE) in 3 days in the absence of drug. The compound to be tested was serially diluted through 10, 2-fold cycles and added to the infected cells. After a 3 day incubation at 33° C. and 2.5% carbon dioxide, the cells were fixed with a 5% solution of glutaraldehyde followed by staining with a 0.25% solution of crystal violet in water. The plates were then rinsed, dried, and the amount of stain remaining in the well (a measure of intact cells) was quantitated with an optical density reader. The MIC was determined to be the concentration of compound which protected 50% of the cells from virus-induced CPE relative to an untreated virus control. […]

HRV-21 = assay: Inhibition of virus-induced CPE in HeLa cells (MIC), HRV-21; assay type: cell-based; conditions: Human rhinovirus sp., HRV21, 72 h, 3 day incubation at 33° C.
Experimental: as §1

HRV-50 = assay: Inhibition of virus-induced CPE in HeLa cells (MIC), HRV-50; assay type: cell-based; conditions: Human rhinovirus sp., HRV50, 72 h, 3 day incubation at 33° C.
Experimental: as §1

HRV-14 = assay: Inhibition of virus-induced CPE in HeLa cells (MIC), HRV-14; assay type: cell-based, human rhinovirus; conditions: Rhinovirus B, HRV14, 72 h, 3 day incubation at 33° C.
Experimental: as §1

HRV-22 = assay: Inhibition of virus-induced CPE in HeLa cells (MIC), HRV-22; assay type: cell-based; conditions: Human rhinovirus sp., HRV22, 72 h, 3 day incubation at 33° C.
Experimental: as §1

HRV-67 = assay: Inhibition of virus-induced CPE in HeLa cells (MIC), HRV-67; assay type: cell-based; conditions: Human rhinovirus sp., HRV67, 72 h, 3 day incubation at 33° C.
Experimental: as §1

HRV-1A = assay: Inhibition of virus-induced CPE in HeLa cells (MIC), HRV-1A; assay type: cell-based, human rhinovirus; conditions: Rhinovirus A, HRV1A, 72 h, 3 day incubation at 33° C.
Experimental: as §1

HRV-15 = assay: Inhibition of virus-induced CPE in HeLa cells (MIC), HRV-15; assay type: cell-based; conditions: Human rhinovirus sp., HRV15, 72 h, 3 day incubation at 33° C.
Experimental: as §1

HRV-89 = assay: Inhibition of virus-induced CPE in HeLa cells (MIC), HRV-89; assay type: cell-based, human rhinovirus; conditions: Rhinovirus A, HRV89, 72 h, 3 day incubation at 33° C.
Experimental: as §1

HRV-1B = assay: Inhibition of virus-induced CPE in HeLa cells (MIC), HRV-1B; assay type: cell-based, human rhinovirus; conditions: Rhinovirus A, HRV1B, 72 h, 3 day incubation at 33° C.
Experimental: as §1

HRV-25 = assay: Inhibition of virus-induced CPE in HeLa cells (MIC), HRV-25; assay type: cell-based; conditions: Human rhinovirus sp., HRV25, 72 h, 3 day incubation at 33° C.
Experimental: as §1

HRV-86 = assay: Inhibition of virus-induced CPE in HeLa cells (MIC), HRV-86; assay type: cell-based; conditions: Human rhinovirus sp., HRV86, 72 h, 3 day incubation at 33° C.
Experimental: as §1

HRV-30 = assay: Inhibition of virus-induced CPE in HeLa cells (MIC), HRV-30; assay type: cell-based; conditions: Human rhinovirus sp., HRV30, 72 h, 3 day incubation at 33° C.
Experimental: as §1

HRV-41 = assay: Inhibition of virus-induced CPE in HeLa cells (MIC), HRV-41; assay type: cell-based; conditions: Human rhinovirus sp., HRV41, 72 h, 3 day incubation at 33° C.
Experimental: as §1

[1] = system: human rhinovirus (HRV) serotypes, panel T; assay: MIC50/MIC80 over panel T of fifteen human rhinovirus serotypes (HeLa cell CPE); assay type: cell-based
Experimental: (§2) They are useful in inhibiting virus replication in vitro and are primarily active against picornaviruses, including enteroviruses, echovirus and coxsackie virus, especially rhinoviruses. […] The test procedure used was as follows: The MIC values were determined by an automated tissue culture infectious dose 50% (TCID-50) assay. HeLa cells in monoloyers in 96-well cluster plates were infected with a dilution of virus which had been shown empirically to produce 80% to 100% cytopathic effect (CPE) in 3 days in the absence of drug. The compound to be tested was serially diluted through 10, 2-fold cycles and added to the infected cells. After a 3 day incubation at 33° C. and 2.5% carbon dioxide, the cells were fixed with a 5% solution of glutaraldehyde followed by staining with a 0.25% solution of crystal violet in water. The plates were then rinsed, dried, and the amount of stain remaining in the well (a measure of intact cells) was quantitated with an optical density reader. The MIC was determined to be the concentration of compound which protected 50% of the cells from virus-induced CPE relative to an untreated virus control.
In the above test procedures, representative compounds of formula I were tested against some the serotypes from either a panel of fifteen human rhinovirus (HRV) serotypes, (noted in the table as panel T) namely, HRV-2, -14, -1A, -1B, -6, -21, -22, -15, -25, -30, -50, -67, -89, -86 and -41 or against some of the serotypes from a panel of 10 human rhinovirus serotypes namely HRV-3, -4, -5, -9, -16, -18, -38, -66, -75 and -61, (noted in the table as panel B) and the MIC value, expressed in micrograms per milliliter ([…]), for each rhinovirus serotype was determined for each virus, example 1e is given as an example of the data. Then MIC50 and MIC80 values, which are the minimum concentrations of the compound required to inhibit 50% and 80%, respectively, of the tested serotypes were determined.
The following Table gives the test results for representative compounds of the invention. The panel of viruses used in the test appears before the MIC80 and MIC50 figure and the number of serotypes which the compound is tested against (N) is indicated after the MIC80 and MIC50 figure.

[2] = system: 15 most commonly isolated nonpolio enteroviruses; assay: MIC for the 15 most commonly isolated nonpolio enteroviruses; assay type: cell-based; conditions: 15 nonpolio enteroviruses
Experimental: as §2
Using the method described above, Example 1e was tested against other viruses. […]

coxsackievirus A9 [3] = assay: Oral efficacy against coxsackievirus A9 in suckling ICR mice, daily for five days; assay type: in vivo, mice (suckling ICR pups)
coxsackievirus A9 [4] = assay: Oral efficacy against coxsackievirus A9 in suckling mice, administered once; assay type: in vivo; conditions: Enterovirus B, 60 h, once 2.5 days postinfection, read-out: 50% protective dose
Experimental: In another study of the oral efficacy of Example 1e against a coxsackievirus A9 infection in suckling mice, in which the compound was administered once 2.5 days postinfection, the 50% protective dose was determined to be 93 mg/kg per day.

coxsackievirus A21 = assay: Oral efficacy against coxsackievirus A21 in weanling ICR mice; assay type: in vivo; conditions: for % Alive at Day 17: oral
coxsackievirus B3 = assay: Oral efficacy against coxsackievirus B3 in mice; assay type: in vivo, adult male BALB/c mice

In the case of `Cc1cc(CCCOc2c(C)cc(-c3noc(C(F)(F)F)n3)cc2C)on1` [Example 1e, 5-{3-[2,6--Dimethyl-4-(5-trifluoromethyl-1,2,4-oxadiazol-3-yl)phenoxy]propyl}-3-methylisoxazole], the MIC (HRV-2) is reported as 0.027 µg/mL (≈ 0.0708 µM), the MIC (HRV-21) is reported as 0.015 µg/mL (≈ 0.0393 µM) and the MIC (HRV-50) is reported as 0.154 µg/mL (≈ 0.404 µM). The MIC (HRV-14) was 0.022 µg/mL (≈ 0.0577 µM), the MIC (HRV-22) was 0.011 µg/mL (≈ 0.0288 µM) and the MIC (HRV-67) was 0.07 µg/mL (≈ 0.184 µM). The MIC (HRV-1A) was 0.119 µg/mL (≈ 0.312 µM), the MIC (HRV-15) was 0.147 µg/mL (≈ 0.385 µM) and the MIC (HRV-89) was 0.015 µg/mL (≈ 0.0393 µM). It also gave an MIC (HRV-1B) of 0.054 µg/mL (≈ 0.142 µM), an MIC (HRV-25) of 0.036 µg/mL (≈ 0.0944 µM) and an MIC (HRV-86) of 0.029 µg/mL (≈ 0.076 µM). It also gave an MIC (HRV-30) of 0.047 µg/mL (≈ 0.123 µM), an MIC (HRV-41) of 0.338 µg/mL (≈ 0.886 µM) and an MIC50 ([1]; Human rhinovirus sp., 72 h, minimum concentration required to inhibit 50% of the tested serotypes) of 0.0415 µg/mL (≈ 0.109 µM). The MIC80 ([1]; minimum concentration required to inhibit 80% of the tested serotypes) was 0.119 µg/mL (≈ 0.312 µM), the “overall MIC80” value [2] was 0.05 µM and the “% Nonparalyzed at Day 13” value (coxsackievirus A9 [3]; 0.2 mg/kg per day, oral) was 7%. For the same compound, the “% Nonparalyzed at Day 13” value (coxsackievirus A9 [3]; 2.0 mg/kg per day, oral) was 10%, the “% Nonparalyzed at Day 13” value (coxsackievirus A9 [3]; 20 mg/kg per day, oral) was 10% and the “% Nonparalyzed at Day 13” value (coxsackievirus A9 [3]; 200 mg/kg per day, oral) was 87%. The ED50 (coxsackievirus A9 [3]; Enterovirus B, A9, po, coxsackievirus A9, suckling mice, oral, daily for five days beginning 2.5 days postinfection, read-out: 50% protective dose (PD50)) was 88 mg/kg, the “protection of infected mice, oral” value (coxsackievirus A9 [3]; coxsackievirus A9) was “orally effective in protecting mice” and the ED50 (coxsackievirus A9 [4]) was 93 mg/kg. The “% Alive at Day 17” value (coxsackievirus A21; 9.4 mg/kg per day) was 13%, the “% Alive at Day 17” value (coxsackievirus A21; 18.8 mg/kg per day) was 40% and the “% Alive at Day 17” value (coxsackievirus A21; 37.5 mg/kg per day) was 75%. The “% Alive at Day 17” value (coxsackievirus A21; 75 mg/kg per day) was 100%, the ED50 (coxsackievirus A21; Enterovirus C, A21, po, read-out: 50% protective dose (PD50)) was 26 mg/kg and the “protection of infected mice, oral” value (coxsackievirus A21; coxsackievirus A21) was “orally effective in protecting mice”. The “% Alive at Day 17” value (coxsackievirus B3; 2 mg/kg per day, oral) was 8%, the “% Alive at Day 17” value (coxsackievirus B3; 20 mg/kg per day, oral) was 67% and the “% Alive at Day 17” value (coxsackievirus B3; 200 mg/kg per day, oral) was 92%. The ED50 (coxsackievirus B3; Enterovirus B, B3, po, coxsackievirus B3, adult male mice, oral, Day 1 to Day 5, read-out: 50% protective dose (PD50)) was 12 mg/kg, the “protection of infected mice, oral” value (coxsackievirus B3; coxsackievirus B3) was “orally effective in protecting mice” and the “efficacy in severe disseminated enterovirus infection model” value (coxsackievirus B3; coxsackievirus B3 infection in mice) was “has shown efficacy in this stringent model”.
